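A five-concentration, 48-hour dose response in 96-well plates underlies each endpoint, interpolated linearly between surrounding concentrations. GI50: concentration for 50% inhibition of growth. TGI marks complete inhibition of growth.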
Legend:
Assay in all cases: NCI-60 cell line screen, 48 h
UACC-257 melanoma = tested on: UACC-257 melanoma
RPMI-8226 leukemia = tested on: RPMI-8226 leukemia
HS 578T breast = tested on: HS 578T breast
SR leukemia = tested on: SR leukemia
TK-10 renal = tested on: TK-10 renal
SF-268 CNS = tested on: SF-268 CNS
UO-31 renal = tested on: UO-31 renal
A498 renal = tested on: A498 renal
ACHN renal = tested on: ACHN renal
HT29 colon = tested on: HT29 colon
M14 melanoma = tested on: M14 melanoma
HCT-15 colon = tested on: HCT-15 colon
OVCAR-8 ovarian = tested on: OVCAR-8 ovarian
U251 CNS = tested on: U251 CNS
HCT-116 colon = tested on: HCT-116 colon
CAKI-1 renal = tested on: CAKI-1 renal
SK-OV-3 ovarian = tested on: SK-OV-3 ovarian
IGROV1 ovarian = tested on: IGROV1 ovarian
COLO 205 colon = tested on: COLO 205 colon
OVCAR-3 ovarian = tested on: OVCAR-3 ovarian
NCI-H226 lung = tested on: NCI-H226 lung
RXF 393 renal = tested on: RXF 393 renal
786-0 renal = tested on: 786-0 renal
CCRF-CEM leukemia = tested on: CCRF-CEM leukemia
DU-145 prostate = tested on: DU-145 prostate
NCI-H460 lung = tested on: NCI-H460 lung
SNB-75 CNS = tested on: SNB-75 CNS
NCI-H522 lung = tested on: NCI-H522 lung
HL-60(TB) leukemia = tested on: HL-60(TB) leukemia
NCI-H23 lung = tested on: NCI-H23 lung
MDA-MB-231 breast = tested on: MDA-MB-231 breast
A549 NSCLC = tested on: A549 NSCLC
SK-MEL-28 melanoma = tested on: SK-MEL-28 melanoma
T-47D breast = tested on: T-47D breast
MCF7 breast = tested on: MCF7 breast
KM12 colon = tested on: KM12 colon
SF-295 CNS = tested on: SF-295 CNS
SNB-19 CNS = tested on: SNB-19 CNS
HOP-62 NSCLC = tested on: HOP-62 NSCLC
SN12C renal = tested on: SN12C renal
K-562 leukemia = tested on: K-562 leukemia
NCI/ADR-RES ovarian = tested on: NCI/ADR-RES ovarian
PC-3 prostate = tested on: PC-3 prostate
OVCAR-5 ovarian = tested on: OVCAR-5 ovarian
MDA-MB-435 = tested on: MDA-MB-435
OVCAR-4 ovarian = tested on: OVCAR-4 ovarian
LOX IMVI melanoma = tested on: LOX IMVI melanoma
HOP-92 NSCLC = tested on: HOP-92 NSCLC
EKVX NSCLC = tested on: EKVX NSCLC
SF-539 CNS = tested on: SF-539 CNS
SK-MEL-5 melanoma = tested on: SK-MEL-5 melanoma
BT-549 breast = tested on: BT-549 breast
MALME-3M melanoma = tested on: MALME-3M melanoma
SK-MEL-2 melanoma = tested on: SK-MEL-2 melanoma
UACC-62 melanoma = tested on: UACC-62 melanoma
HCC-2998 colon = tested on: HCC-2998 colon
SW-620 colon = tested on: SW-620 colon
MOLT-4 leukemia = tested on: MOLT-4 leukemia

## CC(=O)CCc1ccc(Oc2c3ccccc3nc3occc23)cc1
UACC-257 melanoma
  GI50: 14.4 µM
  TGI: 28 µM
RPMI-8226 leukemia
  GI50: 13.8 µM
  TGI: 53.9 µM
HS 578T breast
  GI50: 20.4 µM
  TGI: 44.5 µM
SR leukemia
  GI50: 19.7 µM
  TGI: 57.3 µM
TK-10 renal
  GI50: 15.4 µM
  TGI: 43.9 µM
SF-268 CNS
  GI50: 18.9 µM
  TGI: 38.1 µM
UO-31 renal
  GI50: 22.9 µM
  TGI: > 100 µM
A498 renal
  GI50: 15.8 µM
  TGI: 29.2 µM
ACHN renal
  GI50: 19.1 µM
  TGI: 49.6 µM
HT29 colon
  GI50: 18 µM
  TGI: 50.6 µM
M14 melanoma
  GI50: 15.3 µM
  TGI: 29.2 µM
HCT-15 colon
  GI50: 18.6 µM
  TGI: 73.7 µM
OVCAR-8 ovarian
  GI50: 15.7 µM
  TGI: 41.4 µM
U251 CNS
  GI50: 13.5 µM
  TGI: 33.8 µM
HCT-116 colon
  GI50: 19.1 µM
  TGI: 79.5 µM
CAKI-1 renal
  GI50: 18.2 µM
  TGI: 42 µM
SK-OV-3 ovarian
  GI50: 17.8 µM
  TGI: 41.4 µM
IGROV1 ovarian
  GI50: 33.9 µM
  TGI: > 100 µM
COLO 205 colon
  GI50: 16.8 µM
  TGI: 33.1 µM
OVCAR-3 ovarian
  GI50: 14 µM
  TGI: 31.6 µM
NCI-H226 lung
  GI50: 15.5 µM
  TGI: 34.3 µM
RXF 393 renal
  GI50: 14 µM
  TGI: 39.1 µM
786-0 renal
  GI50: 18.5 µM
  TGI: 45.2 µM
CCRF-CEM leukemia
  GI50: 24.1 µM
  TGI: 94.7 µM
DU-145 prostate
  GI50: 14.8 µM
  TGI: 34.1 µM
NCI-H460 lung
  GI50: 15.6 µM
  TGI: 31.9 µM
SNB-75 CNS
  GI50: 22.4 µM
  TGI: 61 µM
NCI-H522 lung
  GI50: 26.9 µM
  TGI: > 100 µM
HL-60(TB) leukemia
  GI50: 8.67 µM
  TGI: 74.5 µM
NCI-H23 lung
  GI50: 13 µM
  TGI: 39.3 µM
MDA-MB-231 breast
  GI50: 25.5 µM
  TGI: > 100 µM
A549 NSCLC
  GI50: 15.6 µM
  TGI: 35.2 µM
SK-MEL-28 melanoma
  GI50: 22.9 µM
  TGI: 46.7 µM
T-47D breast
  GI50: 2.3 µM
  TGI: 22.6 µM
MCF7 breast
  GI50: 21.3 µM
  TGI: 46.3 µM
KM12 colon
  GI50: 16.1 µM
  TGI: 40 µM
SF-295 CNS
  GI50: 15.7 µM
  TGI: 40.9 µM
SNB-19 CNS
  GI50: 19.5 µM
  TGI: 48 µM
HOP-62 NSCLC
  GI50: 20.1 µM
  TGI: 35.4 µM
SN12C renal
  GI50: 26.7 µM
  TGI: 96.5 µM
K-562 leukemia
  GI50: 25.2 µM
  TGI: > 100 µM
NCI/ADR-RES ovarian
  GI50: 15.4 µM
  TGI: 45.6 µM
PC-3 prostate
  GI50: 14 µM
  TGI: 41 µM
OVCAR-5 ovarian
  GI50: 19 µM
  TGI: 38.9 µM
MDA-MB-435
  GI50: 17.7 µM
  TGI: 43.9 µM
OVCAR-4 ovarian
  GI50: 37.6 µM
  TGI: > 100 µM
LOX IMVI melanoma
  GI50: 14.8 µM
  TGI: 41.8 µM

## FC(F)(F)c1cccc(Oc2ccc(Nc3ncnc4ccc(OCCCN5CCOCC5)cc34)cc2Cl)c1
UACC-257 melanoma
  GI50: 2.03 µM
  TGI: 4.52 µM
HOP-92 NSCLC
  GI50: 1.76 µM
  TGI: 7.82 µM
TK-10 renal
  GI50: 2.02 µM
  TGI: 9.74 µM
EKVX NSCLC
  GI50: 0.872 µM
  TGI: 8.47 µM
SF-539 CNS
  GI50: 1.86 µM
  TGI: 3.33 µM
SF-268 CNS
  GI50: 2.06 µM
  TGI: 6.82 µM
SK-MEL-5 melanoma
  GI50: 1.75 µM
  TGI: 3.15 µM
UO-31 renal
  GI50: 1.19 µM
  TGI: 2.5 µM
A498 renal
  GI50: 2.37 µM
  TGI: 12.8 µM
BT-549 breast
  GI50: 3.09 µM
  TGI: 16.7 µM
ACHN renal
  GI50: 1.62 µM
  TGI: 11.1 µM
MALME-3M melanoma
  GI50: 1.6 µM
  TGI: 3.07 µM
HT29 colon
  GI50: 1.75 µM
  TGI: 3.93 µM
M14 melanoma
  GI50: 1.75 µM
  TGI: 3.51 µM
HCT-15 colon
  GI50: 1.48 µM
  TGI: 3.16 µM
OVCAR-8 ovarian
  GI50: 3.22 µM
  TGI: 21.2 µM
U251 CNS
  GI50: 1.9 µM
  TGI: 4.19 µM
HCT-116 colon
  GI50: 1.62 µM
  TGI: 3.08 µM
CAKI-1 renal
  GI50: 1.34 µM
  TGI: 6.62 µM
SK-OV-3 ovarian
  GI50: 1.38 µM
  TGI: 15.5 µM
IGROV1 ovarian
  GI50: 1.01 µM
  TGI: 3.16 µM
COLO 205 colon
  GI50: 2 µM
  TGI: 4.47 µM
OVCAR-3 ovarian
  GI50: 1.46 µM
  TGI: 3.56 µM
SK-MEL-2 melanoma
  GI50: 2.54 µM
  TGI: 6.1 µM
NCI-H226 lung
  GI50: 15 µM
  TGI: 41 µM
RXF 393 renal
  GI50: 1.76 µM
  TGI: 4.03 µM
786-0 renal
  GI50: 1.51 µM
  TGI: 3.11 µM
CCRF-CEM leukemia
  GI50: 2.77 µM
  TGI: 11.2 µM
DU-145 prostate
  GI50: 2.42 µM
  TGI: 10.3 µM
UACC-62 melanoma
  GI50: 1.7 µM
  TGI: 3.13 µM
NCI-H460 lung
  GI50: 1.9 µM
  TGI: 3.56 µM
SNB-75 CNS
  GI50: 1.45 µM
  TGI: 7.33 µM
NCI-H522 lung
  GI50: 0.833 µM
  TGI: 3.3 µM
HL-60(TB) leukemia
  GI50: 2.03 µM
  TGI: 4.88 µM
NCI-H23 lung
  GI50: 3.19 µM
  TGI: 13.4 µM
MDA-MB-231 breast
  GI50: 1.8 µM
  TGI: 3.72 µM
A549 NSCLC
  GI50: 1.88 µM
  TGI: 5.64 µM
SK-MEL-28 melanoma
  GI50: 1.64 µM
  TGI: 3.01 µM
T-47D breast
  GI50: 1.29 µM
  TGI: 6.35 µM
MCF7 breast
  GI50: 1.74 µM
  TGI: 5.17 µM
KM12 colon
  GI50: 2.29 µM
  TGI: 5.59 µM
HCC-2998 colon
  GI50: 1.72 µM
  TGI: 3.34 µM
SF-295 CNS
  GI50: 1.75 µM
  TGI: 3.49 µM
SNB-19 CNS
  GI50: 2.34 µM
  TGI: 7.15 µM
HOP-62 NSCLC
  GI50: 2.33 µM
  TGI: 5.18 µM
SN12C renal
  GI50: 2.2 µM
  TGI: 11.8 µM
K-562 leukemia
  GI50: 1.5 µM
  TGI: 5.47 µM
NCI/ADR-RES ovarian
  GI50: 2.82 µM
  TGI: 13.8 µM
PC-3 prostate
  GI50: 2.4 µM
  TGI: 8.58 µM
OVCAR-5 ovarian
  GI50: 2.45 µM
  TGI: 7.76 µM
SW-620 colon
  GI50: 1.69 µM
  TGI: 3.23 µM
MDA-MB-435
  GI50: 1.63 µM
  TGI: 3.39 µM
OVCAR-4 ovarian
  GI50: 2.52 µM
  TGI: 12.7 µM
MOLT-4 leukemia
  GI50: 1.97 µM
  TGI: 6.41 µM
LOX IMVI melanoma
  GI50: 1.71 µM
  TGI: 3.45 µM
